# “Also recorded” adds a separate entry of the source.
# B1: PD-L1ip3SC (scrambled analogue of PD-L1ip3) (peptide)
# peptide: VLIKIPWLRLPGCGTQ
# notes: Negative control in BLI; also called scrambled peptide
# Columns and labels:
# [1] = test system: CT26 murine colon carcinoma cells; assay: MTT viability of CT26 cells without T cells; format: cell-based, mouse
# Experimental: Evaluation of the Effect of PD-L1ip3 Peptide or Gene Transduction by Ad-PD-L1ip3 on Murine Colon Carcinoma Cells in Cell Culture The CT26 murine colon carcinoma cells (1,000 cells/well) were seeded into 96-well plate.
# After 24 h, these cells were treated directly with PD-L1ip3 in peptide form (0.1-10 μg/ml) or indirectly with the PD-L1ip3 gene by Ad-PD-L1ip3 transduction (10, 20 and 50 MOI). The growth of the cells was evaluated by MTT assay 24-72 h after the treatments as described previously.
# To evaluate therapeutic potential and cytotoxicity of the PD-L1ip3 peptide and transduction by Ad-PD-L1ip3, cell viability of CT26 cells was analyzed using MTT assay in the presence of mIFNγ (25 ng/ml), which was used to increase PD-L1 expression in cancer cells. The scrambled sequence version of PD-L1ip3 (PD-L1ip3SC) and the adenovirus carrying the corresponding scrambled sequence gene (Ad-PD-L1ip3SC) were used as negative controls.
# human PD-L1 = target: T1, human PD-L1 (Homo sapiens, UniProt Q9NZQ7); assay: Bio-layer interferometry binding to biotinylated PD-L1; conditions: read-out: dissociation constant KD
# T1 construct: biotin (biotinylated); purchased R&D Systems (Minneapolis, Minnesota)
# Experimental: (§1) For each experiment, the BLItz machine was fitted with a fresh streptavidin biosensor tip (FortéBio). All tips were solvated in PBS buffer for 15-30 min before the experiments. The peptide was solvated at a concentration of approximately 1 mg/ml. The precise concentration of this stock solution (0.922 mg/ml) was obtained using the Pierce BCA Protein Assay Kit (Thermo Fisher Scientific) and multiple dilutions were made (corresponding to […]). A solution of biotinylated PD-L1 was applied to the biosensor tip during the loading phase of each experiment. PBS buffer (ix) was used for the baseline.
# [2] = test system: CT26 murine colon carcinoma cells; assay: T cell-induced death of CT26 cells in co-culture with antigen-primed CD8+ T cells (flow cytometry); format: cell-based, mouse; conditions: peptide 10 μM, CT26:T cell 1:16
# Experimental: a. Generation of CT26 cell antigen-specific CD8^+ T cells in vivo: First, the mice were subcutaneously (SQ) injected with CT26 cell lysate (0.5×10^6 cells/mouse in 200 μl PBS) at Day 0. JAWSII immature dendritic cells and CT26 cells previously irradiated with an X-ray dose of 100 Gy were cocultured at a 1:1 ratio for 48 h with an additional treatment of LPS (1 μg/ml). The cells (0.5×10^6 cells/mouse in 200 μl PBS) were collected and administered IV via tail vein to the mice at Day 7. At Day 21, the splenocytes were harvested and the CT26 antigen-specific CD8^+ T cells were labeled using MojoSort™ Mouse CD8 T Cell Isolation Kit (Biolegend, San Diego, CA) and isolated using magnetic beads-based separation protocol with MACS® Column (Miltenyi Biotec, Bergisch Gladbach, Germany) according to the manufacturer's instructions.
# b. Evaluation of T cell-induced death of colon carcinoma cells in co-culture: Permanently GFP-expressing CT26 cells (GFP-CT26) produced by GFP-lentivirus vector transduction were seeded into 12 well-plate (1×10^4 cells/well) in the presence of murine interferon gamma (mIFNγ) at 25 ng/ml for 24 h. […] The effect of PD-L1ip3 in peptide form or gene transduction by Ad-PD-L1ip3 on CT26 cell death was analyzed by flow cytometry using LIVE/DEAD™ Fixable Violet Dead Cell Stain Kit (Invitrogen Corp). […]
# [3] = test system: murine LLC lung carcinoma cells; assay: Cytotoxicity of antigen-primed CD8+ T cells toward LLC cells in co-culture; format: cell-based, mouse; conditions: 10 μM, 1:16 ratio, 18 and 36 hrs; positive control anti-PD-L1 antibody
# Experimental: Generation of LLC cell antigen primed CD8^+ T cells in vivo: Mice were subcutaneously injected with LLC lysate (0.5×10^6 cells/mouse in 100 μl) at Day 0. X-ray (100 Gy) irradiated LLC cells were cocultured with JAWSII immature dendritic cells (JAWS-irrLLC) at a 1:1 ratio for 48 hrs in the presence of LPS (1 μg/ml). The cells were then intravenously injected into mice via tail vein (0.5×10^4 cells/mouse in 200 μl) at Day 7. At Day 21, the splenocytes were harvested and CD8^+ T cells (AP-CD8^+ T cells) were isolated using commercially available isolation kit.
# Evaluation of T cell-induced death of lung carcinoma cells in co-culture: Permanently GFP-expressing LLC cells (1×10^4 cells) were treated with murine IFNγ (25 ng/ml) for 48 hrs. The cells were treated with 10 μM PD-L1ip3. PD-L1ip3SC (10 μM) and mouse anti-PD-L1 antibody (αPD-L1: 0.5 or 1.0 μg/ml) were used as control. The cells were then cocultured with antigen primed CD8^+ T cells 1:16 ratio. The cytotoxicity of AP-CD8^+ T cells toward LLC cells at 18 and 36 hrs after coculture was determined by flow cytometry.
# [4] = test system: H1299 human non-small cell lung carcinoma cell line; assay: Co-culture of H1299 cell antigen-specific T cells with H1299 lung cancer cells, cell death by flow cytometry; format: cell-based; conditions: for cell death in H1299 cells: antigen-specific T cell co-culture, 48 hours
# From the text: (§2) • H1299 human non-small cell lung carcinoma cell line (ATCC) • Jurkat cells (Human T lymphoblasts, ATCC) • Primary cultured murine CD8^+ T cell primed with H1299 cell lysate (H1299 cell antigens)
# Mice were immunized with H1299 cells via tail vein injection. T cells were extracted from spleen, purified, and expanded by co-culturing with dendritic cells (DCs) stimulated with H1299 cell lysate. Expanded T cells were used in co-culture assay.
# [5] = test system: H1299 human non-small cell lung carcinoma cell line; assay: Co-culture of activated Jurkat cells with H1299 lung cancer cells, cell death by flow cytometry; format: cell-based; conditions: for cell death in H1299 cells: Jurkat co-culture, 48 hours; for increase in cell death in H1299 cells: co-cultured with nonspecifically activated Jurkat cells, preliminary data
# Experimental: as §2
# Co-culture assay procedure. Dead cell populations were measured by flow cytometry at 48 hours post-co-culture using propidium iodide (PI) staining.
# CT26 cell tumors = assay: CT26 subcutaneous allograft tumor growth in Balb/c mice; format: in vivo, mouse
# Experimental: The anti-tumor effect of Ad-PD-L1ip3 and PD-L1ip3 in peptide form was evaluated in Balb/c mice using a CT26 murine colon carcinoma allograft model. The CT26 cells were transduced with 100 MOI of Ad-PD-L1ip3 or Ad-PD-L1ip3SC. At 24 h after transduction, the cells were suspended into 0.6% agarose dissolved in RPMI 1640. After filling agarose-cell mixture into 1 ml syringe equipped with 27G needle, it was solidified on ice. Mice were anesthetized with isoflurane and injected subcutaneously into the back with a 5×10^5 CT26 cells in 50 μl cell-agarose mixture. The intraperitoneal administration of PD-L1ip3 peptide (10 mg/kg) was carried out at 1 week after CT26 inoculation for 13 days (every day, totaling 13 injections). The PBS control was injected intraperitoneally with the same schedule. For the pre-immunization study, CT26 lysate (1×10^6 cells/100 μl PBS) were injected subcutaneously, 3 times with 1-week interval. The CT26 lysate was made by 3 times freeze-thaw cycles using liquid nitrogen. The mouse body weights were monitored at 2-day intervals. All mice were sacrificed […] after CT26 inoculation by cervical dislocation after exposure to saturated C02. The tumor size was measured by caliper every 2 days and the volume was calculated using the formula 0.5×(short diameter)^2×(long diameter). The tumors were weighed and fixed in 10% formalin for histological analysis.
# [6] = target: T2, Biotinylated human PD-L1 (R&D Systems) (human, UniProt Q9NZQ7 19-239, limits assumed, biotinylated (site not stated)); assay: bio-layer interferometry (BLItz), biotinylated PD-L1 on streptavidin tip, peptide in solution; negative control; scrambled peptide, negative control
# T2 construct: Bought reagent, loaded on a streptavidin biosensor tip for bio-layer interferometry
# Experimental: as §1
# The peptide was synthesized commercially and the dissociation constant was determined by bio-layer interferometry.
# [7] = peptide form 0.1-10 μg/ml, mIFNγ 25 ng/ml, 24-72 h, no T cells
# T2 sequence (Q9NZQ7 19-239 limits assumed): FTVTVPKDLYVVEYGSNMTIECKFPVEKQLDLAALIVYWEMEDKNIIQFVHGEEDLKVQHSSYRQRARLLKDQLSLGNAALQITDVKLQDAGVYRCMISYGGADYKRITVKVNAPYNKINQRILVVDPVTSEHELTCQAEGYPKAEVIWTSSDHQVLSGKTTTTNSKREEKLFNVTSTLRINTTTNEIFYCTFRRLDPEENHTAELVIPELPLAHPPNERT
Molecule,"viability of CT26 cells (MTT) [1, 7]",Kd (human PD-L1),T cell-induced cell death of CT26 cells vs PBS [2],cytotoxicity of antigen-specific CD8+ T cells toward LLC cells [3],cell death in H1299 cells [4],increase in cell death in H1299 cells ([4]; co-cultured with H1299 cell antigen-primed T lymphocytes),cell death in H1299 cells [5],increase in cell death in H1299 cells [5],"average tumor volume (CT26 cell tumors; mice pre-treated with CT26 cell lysate 3 times, Ad 100 MOI, peptide 10 mg/kg/day i.p., untreated 729.6±310.3)",change in tumor growth vs untreated CT26 cells (CT26 cell tumors; no lysate pretreatment),"viability of CT26 cells (MTT) ([1]; 10 μg/ml, 72 h, not significantly different from PBS)",Kd [6]
H-GTRLKPLIICVQWPGL-OH [PD-L1ip3],not affected,0.033 ± 0.003 mM,markedly increased,Increased; also recorded: as good as or better than the positive control,clear increases of cell death,50%,only minor increases of cell death,30%,607.5±220.1 mm^3,nor PD-L1ip3 in peptide form alone showed a statistically significant change in tumor growth,,
"H-VLIKIPWLRLPGCGTQ-OH [PD-L1ip3SC, reference compound]",not affected,,,,,,only minor increases of cell death,30%,,,slight decrease of cell viability,
PLDIRDRVHVEKSAAS [PD-L1ip4],,,,,did not alter T cell-dependent death,,did not alter T cell-dependent death,,,,,
B1,,,,,,,,,,,,~50 mM

# Source: patent publication US20250066420A1, “PD-L1 INHIBITORY PEPTIDE FOR CANCER IMMUNOTHERAPY” (Kansas State University Research Foundation, priority 2021, published 2025)
